Source: PubChem BioAssay (NCI)
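Exposure lasted 48 hours, with cells grown in 96-well plates and compounds tested at five concentrations. Here, GI50 denotes the concentration required for 50% inhibition of growth. TGI denotes the concentration required for complete inhibition of growth.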

How the values were obtained:
Test in all cases: growth of human tumour cells (NCI), 48 h
K-562 leukemia = test system: K-562 leukemia
IGROV1 ovarian = test system: IGROV1 ovarian
CCRF-CEM leukemia = test system: CCRF-CEM leukemia
MCF7 breast = test system: MCF7 breast
HOP-62 NSCLC = test system: HOP-62 NSCLC
SF-268 CNS = test system: SF-268 CNS
T-47D breast = test system: T-47D breast
CAKI-1 renal = test system: CAKI-1 renal
OVCAR-3 ovarian = test system: OVCAR-3 ovarian
TK-10 renal = test system: TK-10 renal
HCT-15 colon = test system: HCT-15 colon
SK-MEL-5 melanoma = test system: SK-MEL-5 melanoma
HCT-116 colon = test system: HCT-116 colon
ACHN renal = test system: ACHN renal
COLO 205 colon = test system: COLO 205 colon
SK-MEL-28 melanoma = test system: SK-MEL-28 melanoma
MALME-3M melanoma = test system: MALME-3M melanoma
MDA-MB-231 breast = test system: MDA-MB-231 breast
SR leukemia = test system: SR leukemia
SK-OV-3 ovarian = test system: SK-OV-3 ovarian
BT-549 breast = test system: BT-549 breast
MOLT-4 leukemia = test system: MOLT-4 leukemia
786-0 renal = test system: 786-0 renal
RPMI-8226 leukemia = test system: RPMI-8226 leukemia
MDA-MB-468 breast = test system: MDA-MB-468 breast
NCI-H460 lung = test system: NCI-H460 lung
EKVX NSCLC = test system: EKVX NSCLC
SK-MEL-2 melanoma = test system: SK-MEL-2 melanoma
UACC-62 melanoma = test system: UACC-62 melanoma
LOX IMVI melanoma = test system: LOX IMVI melanoma
HS 578T breast = test system: HS 578T breast
M14 melanoma = test system: M14 melanoma
UACC-257 melanoma = test system: UACC-257 melanoma
HL-60(TB) leukemia = test system: HL-60(TB) leukemia
MDA-MB-435 = test system: MDA-MB-435
HT29 colon = test system: HT29 colon
A498 renal = test system: A498 renal
SN12C renal = test system: SN12C renal
SF-295 CNS = test system: SF-295 CNS
NCI-H23 lung = test system: NCI-H23 lung
PC-3 prostate = test system: PC-3 prostate
HOP-92 NSCLC = test system: HOP-92 NSCLC
NCI-H522 lung = test system: NCI-H522 lung
HCC-2998 colon = test system: HCC-2998 colon
A549 NSCLC = test system: A549 NSCLC
KM12 colon = test system: KM12 colon
UO-31 renal = test system: UO-31 renal
NCI-H226 lung = test system: NCI-H226 lung
OVCAR-5 ovarian = test system: OVCAR-5 ovarian
SNB-19 CNS = test system: SNB-19 CNS
OVCAR-4 ovarian = test system: OVCAR-4 ovarian
OVCAR-8 ovarian = test system: OVCAR-8 ovarian
DU-145 prostate = test system: DU-145 prostate
SW-620 colon = test system: SW-620 colon
NCI/ADR-RES ovarian = test system: NCI/ADR-RES ovarian
U251 CNS = test system: U251 CNS
SF-539 CNS = test system: SF-539 CNS
RXF 393 renal = test system: RXF 393 renal
SNB-75 CNS = test system: SNB-75 CNS

## OC(c1ccccc1)(c1ccccc1)C1CCN(c2ccc3nnc(Cl)n3n2)CC1
K-562 leukemia
  GI50: 14 µM
  TGI: > 100 µM
IGROV1 ovarian
  GI50: 16.4 µM
  TGI: 41.9 µM
CCRF-CEM leukemia
  GI50: 12.8 µM
  TGI: > 100 µM
MCF7 breast
  GI50: 16.2 µM
  TGI: 44.2 µM
HOP-62 NSCLC
  GI50: 44 µM
  TGI: > 100 µM
SF-268 CNS
  GI50: 26.3 µM
  TGI: > 100 µM
T-47D breast
  GI50: 20.6 µM
  TGI: > 100 µM
CAKI-1 renal
  GI50: 15.6 µM
  TGI: 81.3 µM
OVCAR-3 ovarian
  GI50: 21.1 µM
  TGI: 65.7 µM
TK-10 renal
  GI50: 22.9 µM
  TGI: 62.5 µM
HCT-15 colon
  GI50: 15.7 µM
  TGI: 54.2 µM
SK-MEL-5 melanoma
  GI50: 13.7 µM
  TGI: 26.6 µM
HCT-116 colon
  GI50: 14.1 µM
  TGI: 39.1 µM
ACHN renal
  GI50: 14.2 µM
  TGI: 44.8 µM
COLO 205 colon
  GI50: 18.3 µM
  TGI: 46.2 µM
SK-MEL-28 melanoma
  GI50: 18.3 µM
  TGI: 43 µM
MALME-3M melanoma
  GI50: 19.5 µM
  TGI: 33.9 µM
MDA-MB-231 breast
  GI50: 15.4 µM
  TGI: 30.4 µM
SR leukemia
  GI50: 10.9 µM
  TGI: 47.5 µM
SK-OV-3 ovarian
  GI50: 42.1 µM
  TGI: > 100 µM
BT-549 breast
  GI50: 13.9 µM
  TGI: 29.8 µM
MOLT-4 leukemia
  GI50: 4.18 µM
  TGI: 31.6 µM
786-0 renal
  GI50: 25 µM
  TGI: 71.8 µM
RPMI-8226 leukemia
  GI50: 9.29 µM
  TGI: 50.8 µM
MDA-MB-468 breast
  GI50: 13 µM
  TGI: 35.4 µM
NCI-H460 lung
  GI50: 14.1 µM
  TGI: 32.6 µM
EKVX NSCLC
  GI50: 15.5 µM
  TGI: 54.3 µM
SK-MEL-2 melanoma
  GI50: 16.5 µM
  TGI: 32.8 µM
UACC-62 melanoma
  GI50: 14.6 µM
  TGI: 30.4 µM
LOX IMVI melanoma
  GI50: 15.3 µM
  TGI: 29 µM
HS 578T breast
  GI50: 22 µM
  TGI: 53.2 µM
M14 melanoma
  GI50: 17.4 µM
  TGI: 34.9 µM
UACC-257 melanoma
  GI50: 18.5 µM
  TGI: 37.9 µM
HL-60(TB) leukemia
  GI50: 12.7 µM
  TGI: 42.9 µM
MDA-MB-435
  GI50: 19.5 µM
  TGI: 43.3 µM
HT29 colon
  GI50: 16.9 µM
  TGI: 36.4 µM
A498 renal
  GI50: 16.8 µM
  TGI: 32.6 µM
SN12C renal
  GI50: 17.5 µM
  TGI: 40 µM
SF-295 CNS
  GI50: 17 µM
  TGI: 54.1 µM
NCI-H23 lung
  GI50: 16.8 µM
  TGI: 37.3 µM
PC-3 prostate
  GI50: 8.75 µM
  TGI: 62.2 µM
HOP-92 NSCLC
  GI50: 10.8 µM
  TGI: 29 µM
NCI-H522 lung
  GI50: 15.6 µM
  TGI: 49.1 µM
HCC-2998 colon
  GI50: 15.5 µM
  TGI: 29.9 µM
A549 NSCLC
  GI50: 18 µM
  TGI: > 100 µM
KM12 colon
  GI50: 16.2 µM
  TGI: 42.5 µM
UO-31 renal
  GI50: 11 µM
  TGI: 29.1 µM
NCI-H226 lung
  GI50: 14.5 µM
  TGI: 38.9 µM
OVCAR-5 ovarian
  GI50: 17.5 µM
  TGI: 45.2 µM
SNB-19 CNS
  GI50: 36.3 µM
  TGI: > 100 µM
OVCAR-4 ovarian
  GI50: 23.2 µM
  TGI: > 100 µM
OVCAR-8 ovarian
  GI50: 25.7 µM
  TGI: 76.9 µM
DU-145 prostate
  GI50: 24 µM
  TGI: > 100 µM
SW-620 colon
  GI50: 25 µM
  TGI: 67.8 µM
NCI/ADR-RES ovarian
  GI50: 18 µM
  TGI: 63.3 µM
U251 CNS
  GI50: 18 µM
  TGI: 39.6 µM
SF-539 CNS
  GI50: 17.2 µM
  TGI: 38.7 µM
RXF 393 renal
  GI50: 14.5 µM
  TGI: 29.4 µM
SNB-75 CNS
  GI50: 14.6 µM
  TGI: 36.9 µM
